For the experiment, the system named is MDA-MB-468 breast. Description: inhibition of tumour cell growth, NCI panel, 48 h.

Data on 35 compounds can be found in PubChem BioAssay (NCI).

Where “and” joins values, the source holds several entries; their conditions need not be identical. Identical values can stand only once.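 In this assay, cells in 96-well plates receive the compound at five concentrations for 48 hours. Endpoints are linearly interpolated between the surrounding concentrations. At the GI50, growth is halved. Definition used: TGI = concentration required for complete inhibition of growth.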

`CC1=C(CNO)C2=C(C)C3(CC3)[C@@](C)(O)C(=O)C2=C1`: the GI50 was 319 nM and the TGI is 920 nM.

As for `COc1ccc(-c2cc(-c3ccccc3)nc(NCCNc3ccnc4cc(Cl)ccc34)n2)cc1`, the GI50 was 300 nM and the TGI is 1210 nM.

In the case of `N#CC(NC(=O)CCl)=C(Cl)Cl`, the GI50 is 1330 nM and the TGI was found to be 3480 nM.

Take `CC1=C2[C@@H](CC1)[C@]1(C)O[C@@](C3CC3)(C[C@H]1OC(=O)CO)[C@H]2OC(=O)/C=C/c1ccccc1`: the GI50 was 14600 nM and the TGI came out at 30600 nM.

As to `CC1(C)CC[C@]2(C(=O)O)CC[C@]3(C)C(=CC[C@@H]4[C@@]5(C)C/C(=C/c6ccco6)C(=O)C(C)(C)[C@@H]5CC[C@]43C)[C@@H]2C1`, the GI50 was 3290 nM and the TGI is 30900 nM.

In the case of `COc1cc(OC)cc(-c2ccc(-c3ccc(C(=N)N)cn3)s2)c1`, the GI50 was 1720 nM and the TGI is 3320 nM.

Regarding `O=C(OC[C@@H]1CO1)c1cccc2c(=O)c3ccccc3[nH]c12`, the GI50 is 883 nM and the TGI stood at 2790 nM.

In the case of `C#CC#CC#CC#CC#CC#CC#CC#CC[C@@H]1OC[C@@H](COC(=O)O[C@@H](C(=O)O[C@H]2C[C@@]3(O)[C@@H](OC(=O)c4ccccc4)[C@@H]4[C@]5(OC(C)=O)CO[C@@H]5C[C@H](O)[C@@]4(C)C(=O)[C@H](OC(C)=O)C(=C2C)C3(C)C)[C@@H](NC(=O)c2ccccc2)c2ccccc2)O1`, the GI50 is 108 nM and the TGI stood at 560 nM.

Regarding `Clc1ccc2c(NCCCN3CCN(c4nc(N5CCOCC5)nc5ccccc45)CC3)ccnc2c1`, the GI50 was 1830 nM and the TGI turned out to be 3660 nM.

For `COC(=O)c1ccc2[nH]c(O)c(C(=Nc3ccc(N(C)C(=O)CN4CCN(C)CC4)cc3)c3ccccc3)c2c1`, the GI50 was 1280 nM and the TGI turned out to be 2990 nM.

`COc1ccc(/C(C)=C(\c2ccc(Cl)cc2)c2ccc(OCCN3CCCCCC3)cc2)cc1F`: the GI50 was 2650 nM and the TGI worked out at 5890 nM.

As to `CNCc1ccc(-c2[nH]c3cc(F)cc4c3c2CCNC4=O)cc1`, the GI50 is 10800 nM and the TGI turned out to be 25200 nM.

On to `N#CCC1(n2cc(-c3ncnc4[nH]ccc34)cn2)CN(C2CCN(C(=O)c3ccnc(C(F)(F)F)c3F)CC2)C1`, for which the GI50 was 44200 nM and the TGI is over 100000 nM.

As to `COc1ccc(OCC(O)CN2CCN(c3ccc(Cl)cc3)CC2)cc1` (stereo not drawn), the GI50 was 8930 nM and the TGI is over 100000 nM.

`COc1ccc(/C=C/C(C)=N/OCC(=O)Nc2ccc(Cl)cc2)cc1`: the GI50 was 2520 nM and the TGI came out at 8340 nM.

Take `O=C(c1ccccc1)C(Br)C(Br)c1ccccc1` (stereo not drawn): the GI50 is 2070 nM and the TGI stood at 4650 nM.

For `COc1ccc(Cc2nc3cc(OC)c(OC)cc3c(=O)[nH]2)cc1`, the GI50 was 3320 nM and the TGI was 17100 nM.

Compound `NC(N)=N/N=C(/c1ccccc1)c1ccccc1F` displayed a TGI of 4940 nM.

`CN(C)c1ccc(N=C2C=CC(=C(C#N)C#N)c3ccccc32)cc1`: the GI50 is 393 nM and the TGI was determined as 2350 nM.

As to `Cc1cc(Nc2ccc(Cl)cc2)nc(NCCCNc2ccnc3cc(Cl)ccc23)n1`, the GI50 was 1610 nM and the TGI was 3180 nM.

As to `COc1ccc(/C=C\c2cc(OC)c(OC)c(OC)c2)c(NS(=O)(=O)c2ccc(C(C)(C)C)cc2)c1O`, the GI50 was 304 nM and the TGI worked out at 22700 nM.

For `CCN1CCN(c2nc(NNC(=O)c3ccccc3)nc(N3CCN(C(c4ccccc4)c4ccccc4)CC3)n2)CC1`, the GI50 is 1940 nM and the TGI was 4690 nM.

Consider `Nc1nc(=S)c2[nH]cnc2[nH]1`, for which the GI50 was 150 nM and 1040 nM; the TGI was 1230 nM and 8930 nM.

As to `N/C(=N\C(N)=N\c1nc2ccccc2s1)c1cnccn1`, the GI50 was 2470 nM and the TGI was determined as 6070 nM.

For `COc1cccc(C2C(C#N)=C(N)Oc3cc4c(cc32)OCO4)c1` (stereo not drawn), the GI50 was 24.4 nM and the TGI stood at 665 nM.

In the case of `Cn1ccnc1C(=O)/C=C/c1ccc(C(=O)Nc2c(F)c(F)c(F)c(F)c2F)cc1`, the GI50 was 1720 nM and the TGI came out at 4330 nM.

Regarding `COc1cc(/C=C\c2cc(OC)c(OC)c(OC)c2)cc(NS(=O)(=O)c2ccc(Cl)cc2)c1OC`, the GI50 was 271 nM and the TGI worked out at 19400 nM.

For the compound `CCOc1ccc(Nc2nc(-c3c(C)nc4ncccn34)cs2)cc1`, the GI50 was 303 nM and the TGI turned out to be 15000 nM.

On to `CNCc1cccc2c1OCCOCCOCCC(C)S(=O)(=O)c1ccc(cc1)-c1cnc(N)c(n1)C(=O)N2` (stereo not drawn), for which the GI50 is 1290 nM and the TGI worked out at 3710 nM.

For the compound `NC(=O)c1ncn(C2OC(CO)C(O)C2O)c1N` (stereo not drawn), the GI50 was 75600 nM and the TGI is over 100000 nM.

For the compound `CCSc1ncc(Br)c(Sc2nc(N)nc3nc[nH]c23)n1`, the GI50 is 1720 nM and the TGI came out at 7810 nM.

On to `C#Cc1cccc(NC(=O)C2CCCN(C(=O)CCl)C2)c1` (stereo not drawn), for which the GI50 was over 82500 nM and the TGI was over 82500 nM.

`O=C(N/N=C/c1ccc(F)cc1)c1ccc(C(F)(F)F)nc1Nc1cccc(C(F)(F)F)c1`: the GI50 was 327 nM and the TGI is 1510 nM.

As to `Cc1ccnc(Nc2ccc([N+](=O)[O-])c(NCCN3CCOCC3)n2)c1`, the GI50 was 18.5 nM and 27.3 nM.

In the case of `CCN(CC)CCNc1ccc([N+](=O)[O-])c2sc3cc(Cl)ccc3c(=O)c12`, the GI50 was 17300 nM and the TGI amounted to 61600 nM.
